Where “and” joins values, the source holds several entries; their conditions need not be identical. Equal entries are not always repeated. Marks after values point to notes of the source that are not given here. Each block holds one compound with its values, some of them ahead of it.
Legend:
recalcified blood = assay: in-use simulation: recalcified blood incubated in catheter segments, clot formation; design: species or system human; settings: 15 cm catheter segment, frosted region, coated according to Example 2, 37° C., 150 minutes
Description: Three 15 cm segments of catheter (frosted region) coated according to Example 2 were prepared with the ends sealed using Eppendorf tubes. 40 ml of blood was collected from an adult volunteer into tri-sodium citrate (32 g/l) using the double syringe technique (the first 5 ml were discarded). 2 ml of 0.025 M calcium chloride in 0.15 M sodium chloride was added to 10 ml of citrated blood. 4 ml of recalcified blood was then added to each of the three catheter segments. The tubes were placed in a 37° C. incubator for 150 minutes. The samples were turned every 30 minutes. After this incubation the blood was drained from each of the catheters. They were then rinsed using PBS to remove any loosely bound material.

platelets = assay: quantitative platelet adhesion test (ATP luminometry) in fresh citrated whole human blood; assay type: cell-based
Description: A quantitative platelet adhesion test was carried out by immersing samples in fresh citrated whole human blood at room temperature for 30 minutes. Tubing samples were prepared in 3 cm lengths sealed at both ends (the blood being introduced into the sample by hypodermic needle), and constantly mixed using a spiral mixer (tests were carried out in triplicate). Blood used in this assay was obtained using the double syringe method.
After incubation the samples were washed in isotonic phosphate buffered saline (PBS) and extracted into 1% trichloro acetate (TCA) (w/v) in 2 mM ethylene diamine tetraacetic acid (EDTA) to liberate ATP from any platelets adhering to the walls of the tubing.
The amount of ATP present in the extractant was estimated using the LKB Pharmacia ATP assay kit and a luminometer.
The number of platelets adhering to the samples was estimated from a standard curve using ATP levels associated with a known number of platelets.

[1] = wettability: static contact angles with distilled water drops; assay type: physicochemical; settings: for Contact angles (°) (average) / Contact angles (°), single readings: distilled water drops after 5 minutes
Description: The wettability of materials coated with DPPC according to the preceding examples was assessed by measurement of static contact angles using distilled water drops after 5 minutes in contact with the surface.

[2] = system: blood cells / platelet cells; assay: haemocompatibility of suture materials by scanning electron microscopy after incubation in whole blood; assay type: cell-based, human; settings: braided polyester yarn suture material coated at 10 mg/ml (Example 3)
Description: Samples of the braided material treated according to Example 3 were incubated in fresh, citrated whole blood as described in Example 10 above. After removal from the blood these materials were washed using PBS and prepared for scanning electron microscopy by fixing in an aliquot of the following solution:
83 ml 0.15 M PBS (pH 7.4) 15 ml saturated picric acid
The samples were washed in PBS and dehydrated using 70% ethanol, followed by absolute ethanol. Finally samples were sputter coated with gold (at 30 mA for 3 minutes) and observed under the electron microscope.

[3] = PE (polyethylene) treated at 10 mg/ml
[4] = PVC thoracic drain catheter, clear region, coated at 10 mg/ml (Example 2)
[5] = PVC thoracic drain catheter, frosted region, coated at 10 mg/ml (Example 2)
[6] = polystyrene petri dish spin-coated at 10 mg/ml (Example 4)
[7] = PVC thoracic drain catheter coated as Ex. 2 at 10 mg/ml
[8] = polyethylene coated as Ex. 5 at 10 mg/ml
[9] = soft PVC tubing coated as Ex. 1
[10] = FEP IV catheters treated at 10 mg/ml in ethanol (Example 8)
[11] = hard PVC tubing coated with 5 mg/ml solution (Example 1)
[12] = hard PVC tubing coated with 10 mg/ml solution (Example 1)
[13] = polypropylene hollow fibre membrane treated at 2 mg/ml (Example 7)
[14] = polypropylene hollow fibre membrane treated at 10 mg/ml (Example 7)
[15] = polypropylene hollow fibre membrane treated at 10 mg/ml (Example 7), includes outlier
[16] = soft PVC tubing coated with 5 mg/ml solution (Example 1)
[17] = soft PVC tubing coated with 10 mg/ml solution (Example 1)

SMILES: CCCCCCCCCCCCCC(=O)OC[C@H](COP(=O)([O-])OCC[N+](C)(C)C)OC(=O)CCCCCCCCCCCCC [DMPC, dimyristoyl phosphatidyl choline]
drainage of blood and clot remaining in catheter (recalcified blood): Whole blood drained easily. One small clot remained attached to the surface
% Reduction (platelet adhesion vs uncoated PE) (platelets; [3]): 94%
platelets adhered, DONOR 1 (platelets; [3]): 0.91 no. of platelets ×10^6 per 22 mm^2 area of material
platelets adhered, DONOR 2 (platelets; [3]): 1.38 no. of platelets ×10^6 per 22 mm^2 area of material
platelets adhered, DONOR 3 (platelets; [3]): 3.99 no. of platelets ×10^6 per 22 mm^2 area of material
platelets adhered, X̄ (mean of donors) (platelets; [3]): 2.09 no. of platelets ×10^6 per 22 mm^2 area of material
% Reduction (platelet adhesion vs uncoated) (platelets; [4]): 56.1%
platelets adhered, DONOR 1 (platelets; [4]): 15.26 platelets adhered ×10^6 per 3 cm lengths of catheters
platelets adhered, DONOR 2 (platelets; [4]): 8.09 platelets adhered ×10^6 per 3 cm lengths of catheters
platelets adhered, DONOR 3 (platelets; [4]): 16.78 platelets adhered ×10^6 per 3 cm lengths of catheters
platelets adhered, X̄ (mean of donors) (platelets; [4]): 13.38 platelets adhered ×10^6 per 3 cm lengths of catheters
% Reduction (platelet adhesion vs uncoated) (platelets; [5]): 95%
platelets adhered, DONOR 1 (platelets; [5]): 0.31 platelets adhered ×10^6 per 3 cm lengths of catheters
platelets adhered, DONOR 2 (platelets; [5]): 0.11 platelets adhered ×10^6 per 3 cm lengths of catheters
platelets adhered, DONOR 3 (platelets; [5]): 0.56 platelets adhered ×10^6 per 3 cm lengths of catheters
platelets adhered, X̄ (mean of donors) (platelets; [5]): 0.33 platelets adhered ×10^6 per 3 cm lengths of catheters
% Reduction (platelet adhesion vs uncoated) (platelets; [6]): 97%
platelets adhered, DONOR 1 (platelets; [6]): 1.20 no. of platelets ×10^6 adhered per petri dish (50 mm diameter)
platelets adhered, DONOR 2 (platelets; [6]): 0.26 no. of platelets ×10^6 adhered per petri dish (50 mm diameter)
platelets adhered, DONOR 3 (platelets; [6]): 3.78 no. of platelets ×10^6 adhered per petri dish (50 mm diameter)
platelets adhered, X̄ (mean of donors) (platelets; [6]): 1.75 no. of platelets ×10^6 adhered per petri dish (50 mm diameter)

Contact angles (°) (average) [1, 7]: 24 °
Contact angles (°), single readings [1, 7]: 26 ° and 19 °
Conclusion (wettability) [1, 8]: Wettable surface
Contact angles (°) (average) [1, 8]: 15 °
Contact angles (°), single readings [1, 8]: 12 ° and 21 °
Conclusion (wettability) [1, 9]: Wettable surface
Contact angles (°) (average) [1, 9]: 8 °
Contact angles (°), single readings [1, 9]: 9 ° and < 5 ° and 10 °
SMILES: CCCCCCCCCCCCCCCC(=O)OC[C@H](COP(=O)([O-])OCC[N+](C)(C)C)OC(=O)CCCCCCCCCCCCCCC [DPPC, dipalmitoyl phosphatidyl choline]
activation of platelet cells (electron microscopy) [2]: platelet cells are not activated
adhesion of blood cells (electron microscopy) [2]: adhere fewer blood cells than untreated materials
thrombogenicity vs untreated braided yarns [2]: appear less thrombogenic
drainage of blood and clot remaining in catheter (recalcified blood): blood drained easily. One small clot remained attached to the surface
% Reduction (platelet adhesion vs untreated catheters) (platelets; [10]): 65%
platelets adhered, DONOR 1 (platelets; [10]): 1.89 platelets ×10^6 per 5 cm length of catheter
platelets adhered, DONOR 2 (platelets; [10]): 1.24 platelets ×10^6 per 5 cm length of catheter
platelets adhered, DONOR 3 (platelets; [10]): 5.84 platelets ×10^6 per 5 cm length of catheter
platelets adhered, X̄ (mean of donors) (platelets; [10]): 2.99 platelets ×10^6 per 5 cm length of catheter
% Reduction (platelet adhesion vs uncoated PE) (platelets; [3]): 94%
platelets adhered, DONOR 1 (platelets; [3]): 1.58 no. of platelets ×10^6 per 22 mm^2 area of material
platelets adhered, DONOR 2 (platelets; [3]): 3.76 no. of platelets ×10^6 per 22 mm^2 area of material
platelets adhered, DONOR 3 (platelets; [3]): 1.72 no. of platelets ×10^6 per 22 mm^2 area of material
platelets adhered, X̄ (mean of donors) (platelets; [3]): 2.35 no. of platelets ×10^6 per 22 mm^2 area of material
% Reduction (platelet adhesion vs uncoated) (platelets; [4]): 97%
platelets adhered, DONOR 1 (platelets; [4]): 0.53 platelets adhered ×10^6 per 3 cm lengths of catheters
platelets adhered, DONOR 2 (platelets; [4]): 1.38 platelets adhered ×10^6 per 3 cm lengths of catheters
platelets adhered, DONOR 3 (platelets; [4]): 0.60 platelets adhered ×10^6 per 3 cm lengths of catheters
platelets adhered, X̄ (mean of donors) (platelets; [4]): 0.84 platelets adhered ×10^6 per 3 cm lengths of catheters
% Reduction (platelet adhesion vs uncoated) (platelets; [5]): 87%
platelets adhered, DONOR 1 (platelets; [5]): 0.88 platelets adhered ×10^6 per 3 cm lengths of catheters
platelets adhered, DONOR 2 (platelets; [5]): 1.05 platelets adhered ×10^6 per 3 cm lengths of catheters
platelets adhered, DONOR 3 (platelets; [5]): 0.59 platelets adhered ×10^6 per 3 cm lengths of catheters
platelets adhered, X̄ (mean of donors) (platelets; [5]): 0.84 platelets adhered ×10^6 per 3 cm lengths of catheters
platelet adhesion to coated PVC / thrombogenicity of PVC tubing (platelets; PVC tubing coated according to Example 1): large reduction in the thrombogenicity
% Reduction (platelet adhesion vs uncoated control) (platelets; [11]): 94%
platelets adhered, DONOR 2 (platelets; [11]): 0.13 no. of platelets ×10^6 per 3 cm lengths of tubing
platelets adhered, DONOR 3 (platelets; [11]): 0.19 no. of platelets ×10^6 per 3 cm lengths of tubing
platelets adhered, X̄ (mean of donors) (platelets; [11]): 0.35 no. of platelets ×10^6 per 3 cm lengths of tubing
platelets adhered, DONOR 1 (platelets; hard PVC tubing coated with 5 mg/ml solution (Example 1), 30 min, room temperature): 0.72 no. of platelets ×10^6 per 3 cm lengths of tubing
% Reduction (platelet adhesion vs uncoated control) (platelets; [12]): 97%
platelets adhered, DONOR 1 (platelets; [12]): 0.51 no. of platelets ×10^6 per 3 cm lengths of tubing
platelets adhered, DONOR 2 (platelets; [12]): 0.14 no. of platelets ×10^6 per 3 cm lengths of tubing
platelets adhered, DONOR 3 (platelets; [12]): 0.10 no. of platelets ×10^6 per 3 cm lengths of tubing
platelets adhered, X̄ (mean of donors) (platelets; [12]): 0.25 no. of platelets ×10^6 per 3 cm lengths of tubing
% Reduction (platelet adhesion vs untreated) (platelets; [13]): 91%
platelets adhered, DONOR 1 (platelets; [13]): 0.91 no. of platelets ×10^6 per 20 cm length of fibre
platelets adhered, DONOR 2 (platelets; [13]): 0.89 no. of platelets ×10^6 per 20 cm length of fibre
platelets adhered, DONOR 3 (platelets; [13]): 0.53 no. of platelets ×10^6 per 20 cm length of fibre
platelets adhered, X̄ (mean of donors) (platelets; [13]): 0.78 no. of platelets ×10^6 per 20 cm length of fibre
platelets adhered, DONOR 1 (platelets; [14]): 0.41 no. of platelets ×10^6 per 20 cm length of fibre
platelets adhered, DONOR 3 (platelets; [14]): 0.52 no. of platelets ×10^6 per 20 cm length of fibre
% Reduction (platelet adhesion vs untreated) (platelets; [15]): 56%
platelets adhered, X̄ (mean of donors) (platelets; [15]): 3.67 no. of platelets ×10^6 per 20 cm length of fibre
platelets adhered, DONOR 2 (platelets; polypropylene hollow fibre membrane treated at 10 mg/ml (Example 7), result thought to be an outlier): 10.08* no. of platelets ×10^6 per 20 cm length of fibre
% Reduction (platelet adhesion vs uncoated) (platelets; [6]): 92%
platelets adhered, DONOR 1 (platelets; [6]): 5.54 no. of platelets ×10^6 adhered per petri dish (50 mm diameter)
platelets adhered, DONOR 2 (platelets; [6]): 3.55 no. of platelets ×10^6 adhered per petri dish (50 mm diameter)
platelets adhered, DONOR 3 (platelets; [6]): 3.08 no. of platelets ×10^6 adhered per petri dish (50 mm diameter)
platelets adhered, X̄ (mean of donors) (platelets; [6]): 4.06 no. of platelets ×10^6 adhered per petri dish (50 mm diameter)
% Reduction (platelet adhesion vs uncoated control) (platelets; [16]): 96%
platelets adhered, DONOR 1 (platelets; [16]): 0.76 no. of platelets ×10^6 per 3 cm lengths of tubing
platelets adhered, DONOR 2 (platelets; [16]): 0.72 no. of platelets ×10^6 per 3 cm lengths of tubing
platelets adhered, DONOR 3 (platelets; [16]): 0.30 no. of platelets ×10^6 per 3 cm lengths of tubing
platelets adhered, X̄ (mean of donors) (platelets; [16]): 0.59 no. of platelets ×10^6 per 3 cm lengths of tubing
% Reduction (platelet adhesion vs uncoated control) (platelets; [17]): 90%
platelets adhered, DONOR 1 (platelets; [17]): 0.97 no. of platelets ×10^6 per 3 cm lengths of tubing
platelets adhered, DONOR 2 (platelets; [17]): 1.89 no. of platelets ×10^6 per 3 cm lengths of tubing
platelets adhered, DONOR 3 (platelets; [17]): 1.25 no. of platelets ×10^6 per 3 cm lengths of tubing
platelets adhered, X̄ (mean of donors) (platelets; [17]): 1.37 no. of platelets ×10^6 per 3 cm lengths of tubing
